Measurements reported in patent US7981939B2, “Application of 2-bromide-isovanillin for the manufacture of a medicament for anti-cancer or/and radiation/chemotherapy sensitization” (Institute of Radiation Medicine, Academy of Military …, priority 2005, dated 2011).

What was measured:
[1] = tested on: leukemia cell line Jurkat; test: Apoptosis in Jurkat cells (Hoechst 33258/FDA staining, DNA gel electrophoresis, flow cytometry); type: cell-based, human
Protocol: (§1) Human cervical cancer cell line HeLa, human liver cancer cell line HepG2/7221/7402, human ovarian cancer cell line HOC8/A2780, human glioma cell line BT325, lung cancer cell line A549, brain metastatic lung cancer cell line BT72 and normal human hepatic cell line LO2 were all grown in DMEM liquid medium supplemented with 10% newborn calf serum. Human leukemia cell line Jurkat was grown in 1640 medium supplemented with 10% newborn calf serum. The above cell lines were cultured in a CO2 incubator at 5% CO2 at 37° C.
3. Using the same procedure as described under items 1 and 2, the leukemia cells Jurkat were diluted, and plated into Petri dishes with a diameter of […], the amount of the cells adjusted depending on the concentration of 2-bromo-isovanillin to be added. Once adherence was achieved, the cells received dosages of 0, 10, 20, 30 and 40 μmol/L in triplicates. After 24 hrs of continuous action, the medium was replaced by a drug-free 1640 medium supplemented with 10% newborn calf serum. The cells were cultured for a total of 2 weeks. At the end of the culturing period, the cells were subjected to Hoechst 33258 and FDA double fluorescence staining and the results were plotted as an apoptosis curve, as shown in FIG. 4A.

[2] = tested on: HeLa, HepG2/7221/7402, HOC8/A2780, BT325, A549, BT72 and IB-4 cancer cell lines; test: Clonogenic assay, 24 hrs of continuous action, ten cancer cell lines; type: cell-based, human; details: 5, 10, 20 and 40 μmol/L
Protocol: as §1
By way of example, human cervical cancer cell line HeLa, human liver cancer cell lines HepG2/7221/7402, human ovarian cancer cell lines HOC8/A2780, human glioma cell line BT325, lung cancer cell line A549, brain metastatic lung cancer cell line BT72 and prostate cancer cell line IB-4 were used to determine the killing of cancer cells by 2-bromo-isovanillin for 24 hrs. Specifically, ten groups were formed according to the type of the cancer cells. The cancer cells were diluted as appropriate, and were respectively plated into Petri dishes with a diameter of […], the amount of the cells adjusted depending on the concentration of 2-bromo-isovanillin to be added. […] Then the cell clones were counted. The experimental data were expressed as the mean of […] and were plotted as a growth curve of cancer cells, as shown in FIG. 3.

[3] = tested on: prostate cancer cell line IB-4; test: G2/M arrest by flow cytometry, IB-4; type: cell-based; details: IB-4, 40 μmol/L, 24 hrs
Protocol: (§2) By way of example, human liver cancer cell lines HepG2 and 7402, human ovarian cancer cell lines HOC8 and A2780, human glioma cell line BT325, lung cancer cell line A549, brain metastatic lung cancer cell line BT72 and prostate cancer cell line IB-4 were used to investigate the G2/M arresting of solid tumor cells of different tissue origins by 2-bromo-isovanillin as measured by the ratio of cells at G2/M phase. Specifically, the cancer cells were divided into two groups, and were treated with 0 or 40 μmol/L 2-bromo-isovanillin for 24 hours. Then the cells were harvested and analyzed for changes in cell cycle and cell apoptosis by flow cytometry.

[4] = tested on: normal human hepatic cell line LO2; test: Cell cycle profile and apoptosis by flow cytometry, LO2; type: cell-based; details: LO2, 40 μmol/L, 24 hrs
Protocol: By way of example, human liver cancer cell line HepG2 and normal human hepatic cell line LO2 were used to study the inhibitory effect of 2-bromo-isovanillin on the growth of liver cancer cells and normal cells by clonogenic assay. Specifically, five groups were formed according to the drug concentration, and the liver cancer cells HepG2 and normal hepatic cells LO2 were respectively treated with 5, 10, 20, 40 and 80 μmol/L 2-bromo-isovanillin for 24 hrs. Then cell survival was measured by clonogenic assay (FIG. 8). In addition, the cell cycle profile and apoptotic effect were compared using flow cytometry.

tumor cells = test: Tumor inhibition upon administration for 6 consecutive days (summary statement)
[5] = tested on: ovarian cancer cell line HOC8; test: Clonogenic assay, 6 days of continuous action, HOC8; type: cell-based, human
Protocol: as §1
By way of example, human cervical cancer cell line HeLa, lung cancer cell line A549, and ovarian cancer cell lines A2780 and HOC8 were used to determine the killing of cancer cells by 2-bromo-isovanillin for 6 days. Specifically, four groups were formed according to the type of the cancer cells. The cancer cells were diluted as appropriate, and were respectively plated into Petri dishes with a diameter of […], the amount of the cells adjusted depending on the concentration of 2-bromo-isovanillin to be added. Once adherence was achieved, each cell type received dosages of 0, 5, 10, 15, 20, 25, 30 and 35 μmol/L in triplicates. After 6 days of continuous action, the medium was replaced by a drug-free DMEM liquid medium. […] Then the cell clones were counted. The experimental data were expressed as the mean of 2-4 experiments and were plotted as a growth curve of cancer cells.

c-myc protein = c-myc protein expression by Western immunoblotting, HeLa; type: cell-based, human; details: 40 μmol/L, 0-24 hrs, decrease more remarkable with time
Protocol: The expression level of c-myc protein in human cervical cancer cell line HeLa treated with 2-bromo-isovanillin was determined by Western immunoblotting. In the Western blotting, the mouse anti-human c-myc protein monoclonal antibody SC-40 (purchased from Santa Cruz) was used as the primary antibody, and the goat anti-mouse antibody IgG-HRP (purchased from Zhongshan Reagent Co.) was used as the secondary antibody. Total proteins from human cervical cancer cells HeLa treated with 40 μmol/L 2-bromo-isovanillin for 0, 4, 8, 12, 24 hrs were extracted according to conventional methods, quantified and subjected to SDS-PAGE electrophoresis, followed by transferring to a membrane and immunoblotting, using β-actin as control.

[6] = tested on: human liver cancer cell line HepG2; test: G2/M arrest and apoptosis by flow cytometry, HepG2; type: cell-based; details: HepG2, 40 μmol/L
Protocol: as §2
2. In a separate experiment, the cell cycle profile and apoptosis rate of human liver cancer cell line HepG2 treated with 40 μmol/L 2-bromo-isovanillin for different periods of time (0-50 h) were studied, and the results are shown in FIGS. 7A and 7B (1, 2, 3, 4 respectively represent the apoptosis results for treatment with 40 μmol/L 2-bromo-isovanillin for 0, 8, 16, 24 hrs).

## COc1ccc(C=O)c(Br)c1O [2-bromo-isovanillin, 2-bromo-3-hydroxy-4-methoxybenzaldehyde]
[1]; 0, 20, 30 μmol/L, 24 hrs
  apoptosis in Jurkat (flow cytometry): significantly induced apoptosis
[1]; Jurkat, 20, 30, 40 μmol/L, 2% agarose gel
  DNA gel electrophoresis finding: DNA fragmentation bands characteristic of apoptosis
[1]; Jurkat, 24 hrs, Hoechst 33258 and FDA double fluorescence staining
  dose inducing necrosis or M phase catastrophic death: ≥ 40 µmol/L
[2]
  effect on the proliferation of all ten cancer cell lines: significant inhibitory effect
[3]
  cell cycle effect: arrested at G2/M phase
[4]
  G2/M arrest and apoptosis in normal hepatic cells: did not result in G2/M arrest or significant cell apoptosis
Tumor cells
  tumor inhibition: 80-95%
[5]; HOC8, 20 μmol/L
  survival rate: lower than 10%
[5]; HOC8, 30 μmol/L
  proliferation: completely inhibited
c-myc protein
  expression level of c-myc protein: decreased
[6]
  treatment time after which obvious G2/M arrest began to appear: 4 h
  treatment time of peak G2/M arrest: 8 to 16 h
[6]; 24 hrs
  cell cycle effect: arrested at G2/M phase
[6]; after 8 hrs of treatment
  cell apoptosis: significantly increased
[6]; at the time of G2/M arrest
  cells at G0/G1 phase: significantly decreased
